From patent US20110207784A1, “OXADIAZOLE-2-OXIDES AS ANTISCHISTOSOMAL AGENTS” (THE UNITED STATES OF AMERICA, AS REPRESENTED BY THE …, priority 2008, published 2011)

Tested on: freshly perfused S. mansoni worms
Test: ex vivo parasite killing assay
Type: cell-based
Details: not given

SMILES	worms judged to be dead [%]
N#Cc1c(-c2cc(F)cc(-c3no[n+]([O-])c3C#N)c2)no[n+]1[O-] [Compound 45, 4,4′-(5-fluoro-1,3-phenylene)bis(3-cyano-1,2,5-oxadiazole-2-oxide)]	100
N#Cc1c(-c2cccc(-c3no[n+]([O-])c3C#N)c2)no[n+]1[O-] [Compound 43, 4,4′-(1,3-phenylene)bis(3-cyano-1,2,5-oxadiazole-2-oxide)]	100

Same assay, conditions: compound at 10 μM, RPMI 1640, 10% FCS, pH 7

SMILES	Approximate ET100 (time for 100% of the worms to die) [h]
N#Cc1c(-c2ccccc2)no[n+]1[O-] [Compound 49, reference compound]	16 to 18

Target: Recombinant thioredoxin glutathione reductase (TGR) (Schistosoma mansoni, UniProt Q962Y6)
Sequence (Q962Y6 1-598): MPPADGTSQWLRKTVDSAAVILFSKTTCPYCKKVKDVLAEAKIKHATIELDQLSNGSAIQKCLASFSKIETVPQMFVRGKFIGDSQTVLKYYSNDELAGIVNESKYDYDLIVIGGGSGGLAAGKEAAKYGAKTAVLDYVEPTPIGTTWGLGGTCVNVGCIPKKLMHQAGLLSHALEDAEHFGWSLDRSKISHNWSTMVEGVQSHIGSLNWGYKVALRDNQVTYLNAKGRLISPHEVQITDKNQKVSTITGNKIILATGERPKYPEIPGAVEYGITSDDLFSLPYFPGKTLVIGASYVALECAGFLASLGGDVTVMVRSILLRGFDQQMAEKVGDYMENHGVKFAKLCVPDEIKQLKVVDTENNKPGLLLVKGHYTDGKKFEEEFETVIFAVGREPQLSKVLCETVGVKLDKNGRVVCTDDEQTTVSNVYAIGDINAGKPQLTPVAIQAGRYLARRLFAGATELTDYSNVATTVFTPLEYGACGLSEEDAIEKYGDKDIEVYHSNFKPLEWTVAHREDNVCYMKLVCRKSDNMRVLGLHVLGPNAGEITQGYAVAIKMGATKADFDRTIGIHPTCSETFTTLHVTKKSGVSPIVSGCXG
Test: biochemical
Type: biochemical, S. mansoni
Details: not given

SMILES	TGR inhibition, potency in words	IC50 [µM]
Cc1c(-c2ccccc2)no[n+]1[O-] [Compound 50]	less potent than compounds 52, 51, and 56	
N#Cc1c(-c2ccc([N+](=O)[O-])cc2)no[n+]1[O-] [Compound 25, 3-cyano-4-(4-nitrophenyl)-1,2,5-oxadiazole-2-oxide]		2.2

Same assay, conditions: read-out: TGR IC50

SMILES	IC50 [µM]
N#Cc1c(-c2ccc(O)cc2)no[n+]1[O-] [Compound 48, 3-cyano-4-(4-hydroxyphenyl)-1,2,5-oxadiazole-2-oxide]	17.9
COc1cccc(-c2no[n+]([O-])c2C#N)c1 [Compound 33, 3-cyano-4-(3-methoxyphenyl)-1,2,5-oxadiazole-2-oxide]	8.9
N#Cc1c(-c2ccc(-c3ccccc3)cc2)no[n+]1[O-] [Compound 28, 4-(biphenyl-4-yl)-3-cyano-1,2,5-oxadiazole-2-oxide]	15.8
N#Cc1c(-c2ccc(F)cc2)no[n+]1[O-] [Compound 21, 3-cyano-4-(4-fluorophenyl)-1,2,5-oxadiazole-2-oxide]	7.9
N#Cc1c(-c2ccc(Cl)cc2)no[n+]1[O-] [Compound 22, 4-(4-chlorophenyl)-3-cyano-1,2,5-oxadiazole-2-oxide]	4
N#Cc1c(-c2cccc(C(F)(F)F)c2)no[n+]1[O-] [Compound 32, 3-cyano-4-(3-(trifluoromethyl)phenyl)-1,2,5-oxadiazole-2-oxide]	2.5
N#Cc1c(-c2cc(F)cc(-c3no[n+]([O-])c3C#N)c2)no[n+]1[O-] [Compound 45, 4,4′-(5-fluoro-1,3-phenylene)bis(3-cyano-1,2,5-oxadiazole-2-oxide)]	0.48
N#Cc1c(-c2cccc([N+](=O)[O-])c2)no[n+]1[O-] [Compound 55, 3-cyano-4-(3-nitrophenyl)-1,2,5-oxadiazole-2-oxide]	2.2
N#Cc1c(-c2ccccc2)no[n+]1[O-] [Compound 49, reference compound]	6.3
COc1ccccc1-c1no[n+]([O-])c1C#N [Compound 34, 3-cyano-4-(2-methoxyphenyl)-1,2,5-oxadiazole-2-oxide]	7.9
COc1cc(-c2no[n+]([O-])c2C#N)cc(OC)c1OC [Compound 38, 3-cyano-4-(3,4,5-trimethoxyphenyl)-1,2,5-oxadiazole-2-oxide]	8.9
N#Cc1c(-c2ccc(F)c(Br)c2)no[n+]1[O-] [Compound 35, 4-(3-bromo-4-fluorophenyl)-3-cyano-1,2,5-oxadiazole-2-oxide]	2.8
N#Cc1c(-c2cccc(-c3no[n+]([O-])c3C#N)c2)no[n+]1[O-] [Compound 43, 4,4′-(1,3-phenylene)bis(3-cyano-1,2,5-oxadiazole-2-oxide)]	3.5
Cc1ccc(-c2no[n+]([O-])c2C#N)cc1 [Compound 27, 3-cyano-4-p-tolyl-1,2,5-oxadiazole-2-oxide]	11.2
COc1ccc(-c2no[n+]([O-])c2C#N)cc1 [Compound 26, 3-cyano-4-(4-methoxyphenyl)-1,2,5-oxadiazole-2-oxide]	10
N#Cc1c(-c2cccc(Cl)c2)no[n+]1[O-] [Compound 30, 4-(3-chlorophenyl)-3-cyano-1,2,5-oxadiazole-2-oxide]	3.5
[O-][n+]1onc(-c2ccccc2)c1CO [Compound 51]	11.2
N#Cc1c(-c2ccc(C(F)(F)F)cc2)no[n+]1[O-] [Compound 24, 3-cyano-4-(4-(trifluoromethyl)phenyl)-1,2,5-oxadiazole-2-oxide]	7.1
N#Cc1c(-c2cccc(Br)c2)no[n+]1[O-] [Compound 31, 4-(3-bromophenyl)-3-cyano-1,2,5-oxadiazole-2-oxide]	2.8
N#Cc1c(-c2cccc(O)c2)no[n+]1[O-] [Compound 46, 3-cyano-4-(3-hydroxyphenyl)-1,2,5-oxadiazole-2-oxide]	7.1
O=Cc1c(-c2ccccc2)no[n+]1[O-] [Compound 52]	0.11
N#Cc1c(-c2ccc(Br)cc2)no[n+]1[O-] [Compound 23, 4-(4-bromophenyl)-3-cyano-1,2,5-oxadiazole-2-oxide]	3.5
